# Experimental data: patent US8809368B2, “Compounds affecting gap junction activity” (Kansas State University Research Foundation, priority 2006, dated 2014)
# “Also recorded” adds a separate entry of the source.
# Columns and labels:
# T47D cells = assay: Scrape load/dye transfer (SL/DT) GJIC assay, T47D cells; assay type: cell-based, human
# Experimental: In the experiments for FIG. 9, T47D cells were dosed with 100, 200 and 400 nM of PQ1 for 40 minutes. Lucifer yellow, a gap junctional permeable dye, was used to measure the GJIC. Rhodamine dextran was used as a control. The dotted line in FIG. 9 indicates the line of cut. This increase could be due to the interaction between the PQ1 and the connexin proteins which leads to the opening of the gap junction channel. PQ1 exerted no effect on the cell morphology of T47D cells (data not shown).
# Scrape load dye transfer technique (SL/DT): Lucifer yellow is an intensely fluorescent […] dye having low molecular weight (Mr 457.2) and passes from one cell to another through gap junctions only. Rhodamine dextran is a high molecular weight polymer (Mr 10,000) used as a control as passes only through injured plasma membrane. Cells were grown to 90% confluency on cover slips, dosed with PQ 1 for 40 minutes. The 2.5 μl of 1% (w/v) Lucifer yellow and 0.75% (w/v) of Rhodamine dextran was mixed and added in the center of the coverslip. Two cuts crossing each other in the center of the coverslip were made. After three minutes, cells were washed with PBS and incubated at 37° C. in tissue culture media for 20 minutes. Cells were fixed and mounted on a slide, sealed and visualized under a fluorescence microscope at 10× objective.
# (§1) Intercellular communication in many organs is maintained via GJIC. Several GJIC enhancers have been reported; however, an effective clinical drug targeting gap junction is not available at this time. The effect of PQ1 on the GJIC activity in T47D breast cancer cells was tested. […] Conversely, PQ1 has no effect on GJIC activity of human primary epithelial cells (MEC, normal cells) compared to its controls (data not shown). The distance of dye transfer from section cut to the farthest cells with dye was measured. […] MECs have uniform uptake of Lucifer yellow. This is due to the existing high level of gap junction activity of these normal cells.
# Gap Junction Activity. […] Cells were mounted on a slide, sealed and visualized under a fluorescence microscope at 10× objective.
# HIF1α = assay: CoCl2 chemical hypoxia in R28 cells, HIF1α stabilization in nuclear extracts; assay type: cell-based, rat; details: PQ1 alone, up to 24 h
# Experimental: (A) About 70% confluent retinal R28 cells were treated with 100, 200 and 500 μM CoCl2 for 24 h with or without the pre-treatment of PQ1 (10 μM, 40 min) in a cell culture chamber (5% CO2, room air, 37° C.). Caspase-3 activation was determined by Western blotting in whole cell homogenates (WCH). (B) HIF1α stabilization was measured in the nuclear extracts (NE) after treatment with 500 μM CoCl2 at different time intervals with or without the pretreatment of PQ1. […] Levels of Cx43 and phosphoCx43-Ser368 are measured in WCH. β-Actin is used as a loading control.
# Approximately 70% confluent retinal R28 cells were pre-incubated with PQ1 (10 μM, 40 min), followed by CoCl2 treatments at 100, 200 and 500 μM for different time periods in a cell culture chamber (5% CO2, room air, 37° C.). Hypoxia induction was confirmed by testing the hypoxia-inducible factor 1-α (HIF1α) protein expression levels in nuclear extracts by Western blotting.
# Nuclear extracts. […] The eluted nuclear proteins in the supernatant were collected and HIF1a protein levels were measured by Western blotting. […]
# MEC = assay: MTT assay, cell viability, MEC; assay type: cell-based, human; details: for cell viability compared to control: 24 hours
# Experimental: The cytotoxicity of PQ1 in MEC and T47D cells using MTT assay was also determined. Cells were treated with 10, 100, 200, and 500 nM PQ1 for 24 hours. MTT assay was performed according to the manufacture's recommendations. A 200 nM PQ1 has 67% cell viability compared to controls (FIG. 16). Treatments of 100 and 200 nM PQ1 have 95% and 103% MEC cell viability compared to control. However, both MEC and T47D cells decrease cell viability to 50% and 65% at 1 μM PQ1, respectively. Thus, 100-200 nM of PQ1 is sufficient to enhance GJIC activity.
# MTT assay. MTT (3-(4,5-dimethyl thiazol-2-yl)-2,5-diphenyl tetrazolium bromide) assay was performed with adherent cell cultures using a culture medium free of phenol red and of serum. Solution containing MTT was metabolized by the cells (incubation period 3 hours). MTT is a tetrazolium salt (yellowish) that is cleaved to formazan crystals by the succinate dehydrogenase system which belongs to the mitochondrial respiratory chain, and is only active in viable cells. The mitochondrial succinate dehydrogenase reduces the MTT crystals into purple formazan in the presence of an electron coupling reagent. The more viable cells will be presented in a well, the more formazan dye will be produced. After solubilization of the MTT crystals with the solubilization solution MTT, the amount of dye will be measured spectrophotometrically at 540 nm.
# [1] = test system: human primary epithelial cells (MEC, normal cells); assay: Scrape load/dye transfer GJIC assay, primary epithelial cells (MEC); assay type: cell-based; details: compared to its controls
# Experimental: as §1
# Gap Junction Activity. For scrape load/dye transfer (SL/DT) assay, cells were grown to 90% confluency on cover slips, dosed with 10, 50, 100 and 200 nM of TCDD for 40 minutes. After that cells were washed three times with PBS. The 2.5 μl of 1% (w/v) Lucifer yellow and 0.75% (w/v) of Rhodamine dextran was mixed and added in the center of the coverslip. Two cuts crossing each other in the center of the coverslip were made. After three minutes, cells were washed three times with PBS and incubated at 37° C. in tissue culture media for 20 minutes. The cells were then washed with PBS three times and fixed in 2.5% paraformaldehyde for 10 minutes. Cells were mounted on a slide, sealed and visualized under a fluorescence microscope at 10× objective.
smiles,measurement,setting,value
"COc1cc(NCCCN)c2nccc(C)c2c1Oc1cccc(C(F)(F)F)c1.O=C(O)CCC(=O)O [PQ1, 6-Methoxy-8-[(3-aminopropyl)amino]-4-methyl-5-(3-trifluoromethylphenyloxy) quinoline succinic acid]",increase in distance of dye transfer,"T47D cells; 200 nM, compared to control",8.5 fold
same,gap junction activity (SL/DT) compared to controls,"T47D cells; 100, 200 and 500 nM",significant increase
same,gap junctional activity (SL/DT),T47D cells; 200 and 500 nM for 40 minutes,significant increase
same,HIF1α stabilization,HIF1α,did not cause activation or stabilization; also recorded: did not have any effect
same,cell viability compared to control,MEC; 100 nM,95%
same,cell viability compared to control,MEC; 200 nM,103%
same,cell viability,MEC; 1 μM,50%
same,GJIC activity,[1],no effect
